# Key:
# MRSA strain USA400 [1] = assay: Efficacy of F13 in immunized mice, MRSA challenge; assay type: in vivo, DR4 HLA transgenic mice; details: 500 μg i.v. 1 h after 2×10^8 MRSA i.p.
# Description: The immunogenicity of the F13 variant was compared to wild-type LST in DR4 HLA transgenic mice, i.e., mice bearing partially humanized immune systems. 100 μg of wild-type LST or variant F13 were mixed with complete Freund's adjuvant and injected subcutaneously into DR4 mice. Fourteen days later, antibody titers were measured by ELISA. Variant F13 yielded more than 200-fold lower antibody titers compared to wild-type LST. To assess the impact of antibody titers on antibacterial efficacy, the mice were challenged with an intraperitoneal injection of 2×10^8 MRSA strain USA400, and 1 hour later the mice were treated with 500 μg wild-type LST, variant F13, or PBS, administered as a single bolus intravenous injection. Both mice receiving PBS sham treatments died as did both mice treated with wild-type LST. In contrast, both mice treated with variant F13 survived. Thus, the reduced immunogenicity of F13 conferred enhanced therapeutic efficacy in vivo.
# MRSA strain USA400 [2] = assay: Efficacy of F12 in recurrent systemic MRSA infections; assay type: in vivo, DR4 HLA transgenic mice; details: for # Treated Mice Surviving: 500 μg enzyme 1 hour later
# Description: In a similar set of experiments, the immunogenicity and efficacy of variant F12 was compared to wild-type LST in the absence of adjuvant using DR4 HLA transgenic mice. At week 0, mice were challenged with an intraperitoneal injection of 2×10^8 MRSA strain USA400, and 1 hour later the mice were treated with 500 μg wild-type LST or 500 μg variant F12, given as a single bolus subcutaneous injection. Subsequently, mice were challenged weekly with an intraperitoneal injection of 1×10^9 MRSA strain USA400, and treated as above. Antibody titers were measured weekly beginning at week 2. […] Variant F12 rescued all mice from four recurrent, systemic, MRSA infections (Table 24). The substantially lower antibody titers elicited by variant F12 indicate that this variant is […] than wild-type LST.
# MRSA strain 3425-3 = assay: MIC assay; assay type: cell-based, Staphylococcus aureus; details: biological duplicates
# Description: (§1) The MICs of wild-type lysostaphin and its variants were determined by adding 2-fold serial dilutions of enzymes into wells of a polypropylene 96-well plate (Costar 3879) containing ˜40,000 S. aureus SA113 (or S. aureus 6445, 3425-1, 3425-3) cells in Muller Hinton broth (BD) supplemented with 2% NaCl and 0.1% bovine serum albumin, yielding a total volume of 100 μl. Plates were grown overnight at 37° C. with shaking at 900 rpm on an Orbit P4 orbital shaker (Labnet; Edison, N.J.). […] The assay was performed in triplicate for each enzyme.
# S. aureus SA113 = assay: MIC assay; assay type: cell-based, Staphylococcus aureus
# Description: as §1
# S. aureus 3425-1 = assay: MIC assay; assay type: cell-based, Staphylococcus aureus; details: biological duplicates
# Description: as §1
# pooled splenocytes = assay: Transgenic DR4 murine immunogenicity study (memory response, splenocyte proliferation); assay type: in vivo; details: wild-type LST primed mice, 100 μg rechallenge
# Description: Twelve female 6-8 week old DR4 transgenic mice (Abb Knockout/Transgenic HLA-DR4; B6.129S2-H2-Ab1tm1GruTg(HLA-DRA/H2-Ea,HLA-DRB1*0401/H2-Eb)1Kito; Taconic Farms, Germantown, N.Y.) were divided into four groups of three each and immunized with 50 μl subcutaneous injections of wild-type LST using one of the following four schemes: (i) initial immunization with 100 μg enzyme in CFA, followed by 100 μg boosts in incomplete Freund's adjuvant (IFA) on days 14 and 28; (ii) initial immunization with 20 μg enzyme in CFA, followed by 20 μg boosts in IFA on days 14 and 28; (iii) initial immunization with 100 μg enzyme in PBS buffer, followed by 100 μg boosts in PBS buffer on days 7, 14, 21 and 28; (iv) initial immunization with 20 μg enzyme in PBS buffer, followed by 20 μg boosts in PBS buffer on days 7, 14, 21 and 28. Serum IgG antibody titers against wild-type LST were measured on days 13, 20, 27, 34, and 62. […] Mice were housed without further manipulation until week 23 of the study, at which time serum IgG antibody titers were again measured and mice were divided into two experimental arms having equivalent average antibody titers. Note that during the week 9 to week 23 recovery period, two mice (the lowest titer 100 μg no adjuvant and one of the high titer 100 μg adjuvant) began suffering hair loss, weight loss, and reduced mobility and were sacrificed as per the IACUC approved protocol. […]
# S. aureus strain SA113 = assay: MIC activity relative to LST^WT; assay type: cell-based, Staphylococcus aureus; details: % fold dilution relative to wild type
# Description: LST and its derivatives were secreted from P. pastoris. Briefly, recombinant Pichia strains were cultured in a 2.5 L bioreactor (Applicon Biotechnology), and the proteins were captured from the supernatant by polyethylene glycol-6000 (PEG-6000) precipitation and purified to homogeneity by SP SEPHAROSE F.F. cation exchange chromatography. Endotoxin was removed from the protein preparation by TRITON-X114 extraction (Liu, et al. (1997) Clin. Biochem. 30:455-63). Protein expression levels were estimated by densitometry analysis of SDS-PAGE gels.
substance,measurement,setting,value
Wild-Type: wild-type lysostaphin (SEQ ID NO:49) produced in P. pastoris; aglycosylated Ser126Pro backbone in the design studies [reference compound],survival,MRSA strain USA400 [1],died
same,recurrent systemic MRSA infections from which mice were rescued,"MRSA strain USA400 [2]; 500 μg s.c., weekly challenges, no adjuvant",four
same,# Treated Mice Surviving,"MRSA strain USA400 [2]; Week 0, 2×10^8 MRSA USA400 i.p., no adjuvant",7
same,# Treated Mice Surviving,"MRSA strain USA400 [2]; Week 1, 1×10^9 MRSA USA400 i.p.",6
same,# Treated Mice Surviving,"MRSA strain USA400 [2]; Week 2, 1×10^9 MRSA USA400 i.p.",5
same,# Treated Mice Surviving,"MRSA strain USA400 [2]; Week 3, 1×10^9 MRSA USA400 i.p.",4
same,# Treated Mice Surviving,"MRSA strain USA400 [2]; Week 4, 1×10^9 MRSA USA400 i.p.",0
same,MIC Strain 3425-3,MRSA strain 3425-3,0.03 µg/mL
same,MIC,"S. aureus SA113; S. aureus SA113, purified enzyme",0.0351 µg/mL
same,MIC Strain SA113,S. aureus SA113; biological duplicates,0.02 µg/mL
same,MIC Strain 3425-1,S. aureus 3425-1,0.04 µg/mL
same,stimulation index,pooled splenocytes,1.8 fold
same,Activity (% WT),S. aureus strain SA113,100 % WT

# Source: patent publication US11091749B2, “Deimmunized lysostaphin and methods of use” (TRUSTEES OF DARTMOUTH COLLEGE, priority 2014, dated 2021)
